Tests used:
humanem Estrogenrezeptor = biological target: T1, humanem Estrogenrezeptor (Homo sapiens, UniProt P03372); test: Transactivation assay for antiestrogenic activity in HeLa cells (HEGO + Vit-TK-CAT reporter); format: cell-based; details: Hela cells transiently transfected with HEGO and Vit-TK-CAT; in presence of 0,1 nM Estradiol; read-out: IC50 [nM] Hela-Zellen
T1 construct: expressed in transfected cells; host or cells: HeLa cells, transiently transfected with HEGO
T1 sequence (P03372 1-595): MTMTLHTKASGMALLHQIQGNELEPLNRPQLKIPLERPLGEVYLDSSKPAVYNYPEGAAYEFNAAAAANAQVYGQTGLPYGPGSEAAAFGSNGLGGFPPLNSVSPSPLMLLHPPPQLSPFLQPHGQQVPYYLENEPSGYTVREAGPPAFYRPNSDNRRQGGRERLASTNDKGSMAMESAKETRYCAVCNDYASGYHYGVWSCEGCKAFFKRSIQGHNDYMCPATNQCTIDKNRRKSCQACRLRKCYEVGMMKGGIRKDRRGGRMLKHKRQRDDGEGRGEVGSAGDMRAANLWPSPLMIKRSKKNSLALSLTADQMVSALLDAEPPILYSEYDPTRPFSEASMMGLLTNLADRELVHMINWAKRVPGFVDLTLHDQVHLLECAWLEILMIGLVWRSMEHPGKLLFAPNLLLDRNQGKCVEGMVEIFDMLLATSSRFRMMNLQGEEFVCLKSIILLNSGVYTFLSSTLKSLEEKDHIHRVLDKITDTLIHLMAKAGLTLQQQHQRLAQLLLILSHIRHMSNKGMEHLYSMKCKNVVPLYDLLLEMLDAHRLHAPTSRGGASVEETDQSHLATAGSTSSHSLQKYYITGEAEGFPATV
Source text: Die antiestrogene Wirkung der erfindungsgemäßen Verbindungen wurde in Transaktivierungsassays bestimmt [Demirpence E., Duchesne M.-J., Badia E., Gagne D. und Pons M.: MVLN Cells: A Bioluminescent MCF-7-Derived Cell Line to study the Modulation of Estrogenic Activity; J. Steroid. Molec.
Die Hela-Zellen sind transient mit humanem Estrogenrezeptor-Expressionsvektor (HEGO) und Vit-TK-CAT Reportergen und die MVLN-Zellen stabil mit dem Reportergen Vit-TK-LUC transfiziert. Es wurde die […] Wirkstärke in Gegenwart von 0,1 nM Estradiol bestimmt.

Uterus = Uterus growth test in the infantile rat, p.o. (antiestrogenic / antiuterotrophic activity); format: in vivo, Ratte; details: 0,1 mg/kg p.o. once daily for 3 days with 0,5 µg Estradiolbenzoat s.c., inhibition of uterus weight versus EB control
Source text: 1. Uteruswachstumstest bei der infantilen Ratte (antiestrogene Wirkung)
Bei Nagern reagiert der Uterus auf die Applikation von estrogenen mit einer Gewichtszunahme (sowohl Proliferation als auch Wassereinlagerung). Dieses Wachstum ist durch gleichzeitige Gäbe antiestrogen-wirkender Verbindungen dosisabhängig zu hemmen. * = Dimethylbenzanthrazen
Infantile weibliche Ratten im Gewicht von 35-45 g bei Versuchsbeginn, pro Dosis 5-6 Tiere.
Für die p.o. Applikation werden die Substanzen in 1 Teil Ethanol (E) gelöst und mit 9 Teilen Erdnußöl (EÖ) aufgefüllt.
Die gerade von den Müttern abgesetzten jungen Ratten werden zur Eingewöhnung einen Tag vor Behandlungsbeginn geliefert und sofort mit Futter - auch in dem Tierkäfig - versorgt. Die Behandlung erfolgt dann täglich einmal über 3 Tage in Kombination mit 0,5 µg Estradiolbenzoat (EB). EB wird immer subcutan (s.c.) appliziert, während die Testsubstanz p.o. (peroral) verabreicht wird. 24 Stunden nach der letzten Applikation werden die Tiere gewogen, getötet und die Uteri entnommen. Von den präparierten Uteri werden die Feuchtgewichte (ohne Inhalt) ermittelt.
• negative Kontrolle: Vehikel (E/EÖ), 0,2 ml/Tier/Tag • positive Kontrolle: 0,5 µg EB/0,1 ml/Tier/Tag
Von den relativen Organgewichten (mg/100 g Körpergewicht) werden für jede Gruppe die Mittelwerte mit Standardabweichung (X+SD), sowie die Signifikanz der Unterschiede zur Kontrollgruppe (EB) im Dunnett-Test (p<0.05) ermittelt. Die Berechnung der Hemmung (in %) gegenüber der EB-Kontrolle erfolgt mit einem Programm. Die relativen Wirksamkeiten der Prüfsubstanzen werden durch eine Kovarianz- und Regressionsanalyse ermittelt.

[1] = system: DMBA-induzierten Mammatumors; test: DMBA tumour model in the rat (influence on tumour growth); format: in vivo, Ratte
Source text: Beeinflussung des Tumorwachstums im DMBA*-Modell bei der Ratte (DMBA-Tumormodell)
Das Wachstum des DMBA-induzierten Mammatumors der Ratte ist weitgehend von Estrogenen und Prolaktin abhängig. Wirksame Antiestrogene, Antigestagene und Aromatasehemmer führen zur Hemmung des Tumorwachsturns. Substanzen, die antigonadotrope und androgene Eigenschaften besitzen, entfalten ebenfalls tumorhemmende Wirkung.
45 - 47 Tage alte weibliche Ratten (Sprague-Dawley, Züchter ZIH oder Möllegard), pro Gruppe 8 - 10 Tiere. *9,10-Dimethyl-1,2-benzanthracen
Die Tiere erhalten einmalig 10 mg DMBA oral. Anschließend werden die Tiere einmal wöchentlich palpatorisch auf Tumorentwicklung untersucht. 6 bis 10 Wochen nach der DMBA-Behandlung entwickeln sich etwa 1 bis 10 Tumoren pro Tier. Die Tumorgröße wird einmal wöchentlich mit Hilfe einer Schiebelehre bestimmt. Hat mindestens ein Tumor eine definierte Größe (150 mm^2 Tumorfläche) erreicht, erfolgt die Ovariektomie der Tiere bzw. beginnt die Behandlung der Tiere mit der Testsubstanz. Die Behandlung erfolgt zumeist täglich über ca. 28 Tage (Details Abwicklung siehe Versuchsplan). Die Tumorgröße wird weiterhin 1 x /Woche ermittelt.
Die Gesamttumorgröße pro Tier wird vor Beginn der Behandlung ermittelt (Vorwerte). Für jede Gruppe wird dann der Mittelwert der prozentualen Veränderungen der Tumorgröße, bezogen auf die initialen Werte, errechnet. […]

[2] = Antiestrogenic activity (test not specified)

Structure (SMILES)	IC50 (humanem Estrogenrezeptor)	0,1 mg/kg p.o. % Hemmung (Uterus)	Hemmung des Tumorwachstums ([1]; oral dose 3 mg/kg/Tag (Figur 1))	antiestrogene Wirksamkeit [2]	Hemmung des Tumorwachstums ([1]; oral dose 10 mg/kg/Tag (Figur 1))
CN(CCCCC[C@@H]1Cc2cc(O)ccc2[C@@H]2[C@@H]1[C@@H]1CC[C@H](O)[C@@]1(C)C[C@@H]2F)CCCSCCCC(F)(F)C(F)(F)F [Beispiel 12, 11β-Fluor-7α-{5-(N-methyl-N-3-(4,4,5,5,5-pentafluorpentylthio)-propytamino]-pentyl}-estra-1,3,5(10)-trien-3,17β-diol]	0.06 nM	91%			
CN(CCCCC[C@@H]1Cc2cc(O)ccc2[C@H]2CC[C@@]3(C)[C@@H](C[C@@H](F)[C@]3(C)O)[C@H]12)CCCSCCCC(F)(F)C(F)(F)F [Beispiel 15, 16α-Fluor-17α-methyl-7α-{5-[N-methyl-N-3-(4,4,5,5,5-pentafluorpentylthio)-propylamino]-pentyl}-estra-1,3,5(10)-trien-3,17β-diol]	0.06 nM	33%			
CN(CCCCC[C@@H]1Cc2cc(O)ccc2[C@H]2CC[C@@]3(C)[C@@H](C[C@@H](F)[C@]3(C)O)[C@H]12)CCCS(=O)(=O)CCCC(F)(F)C(F)(F)F [Beispiel 18, 16α-Fluor-17α-methyl-7α-{5-[N-methyl-N-3-(4,4,5,5,5-pentafluorpentansulfonyl)-propylamino]-pentyl}-estra-1,3,5(10)-trien-3,17β-diol]	0.05 nM	16%			
CN(CCCCC[C@@H]1Cc2cc(O)ccc2[C@H]2CC[C@@]3(C)C(=CC[C@@H]3O)[C@H]12)CCCS(=O)(=O)CCCC(F)(F)C(F)(F)F [Beispiel 25, 7α-{5-[N-Methyl-N-3-(4,4,5,5,5-pentafluorpentansulfonyl)-propylamino]-pentyl}-estra-1,3,5(10),14-tetraen-3,17β-diol]	0.06 nM				
C[C@]12C[C@H](F)[C@@H]3c4ccc(O)cc4C[C@@H](CCCCCN4CCC[C@H]4CSCCCC(F)(F)C(F)(F)F)[C@H]3[C@@H]1CC[C@@H]2O [Beispiel 29, 11β-Fluor-7α-{5-[2-(4,4,5,5,5-pentafluorpentylthiomethyl)-pyrrolidin-1-yl]-pentyl}-estra-1,3,5(10)-trien-3,17β-diol]	0.13 nM	80%	stärker als eine orale Dosis von 10 mg/kg/Tag 7α-[9-(4,4,5,5,5-Pentafluorpentansulfinyl)-nonyl]-estra-1,3,5(10)-trien-3,17β-diol		
C[C@]1(O)CC[C@H]2[C@@H]3[C@H](CCCCCN4CCC[C@H]4CSCCCC(F)(F)C(F)(F)F)Cc4cc(O)ccc4[C@H]3[C@@H](F)C[C@@]21C [Beispiel 31, 11β-Fluor-17α-methyl-7α-{5-[(2S)-2-(4,4,5,5,5-pentafluorpentylthiomethyl)-pyrrolidin-1-yl]-pentyl}-estra-1,3,5(10)-trien-3,17β-diol]	0.1 nM	71%			
CN(CCCCC[C@@H]1Cc2cc(O)ccc2[C@@H]2[C@@H]1[C@@H]1CC[C@](C)(O)[C@@]1(C)C[C@@H]2F)CCCSCCCC(F)(F)C(F)(F)F [Beispiel 36, 11β-Fluor-17α-methyl-7α-{5-[N-methyl-N-3-(4,4,5,5,5-pentafluorpentylthio)-propylamino]-pentyl}-estra-1,3,5(10)-trien-3,17β-diol]	0.05 nM	62%			
CN(CCCCC[C@@H]1Cc2cc(O)ccc2[C@@H]2[C@@H]1[C@@H]1CCC(=O)[C@@]1(C)C[C@@H]2F)CCCSCCCC(F)(F)C(F)(F)F [Beispiel 40, 11β-Fluor-7α-{5-[N-methyl-N-3-{4,4,5,5,5-pentafluorpentylthio)-propylamino]-pentyl}-3-hydroxy-estra-1,3,5(10)-trien-17-on]				stark antiestrogen wirksam	
C[C@]12CC[C@@H]3c4ccc(O)cc4C[C@@H](CCCCCCCCC[S+]([O-])CCCC(F)(F)C(F)(F)F)[C@H]3[C@@H]1CC[C@@H]2O (stereo partly drawn) [ZM 182 780, 7α-[9-(4,4,5,5,5-Pentafluorpentansulfinyl)-nonyl]-estra-1,3,5(10)-trien-3,17β-diol, reference compound]		8%			nur eine geringfügige Wirkung im Vergleich zur intakten Kontrolle

Source: EP0920441B1, “7ALPHA-(EPSILON-AMINOALKYL)-ESTRATRIENES, PROCESS FOR PREPARING THE SAME, PHARMACEUTICAL PREPARATIONS CONTAINING SAID 7ALPHA-(EPSILON-AMINOALKYL)-ESTRATRIENES AND THEIR USE FOR PREPARING MEDICAMENT” (SCHERING AKTIENGESELLSCHAFT, priority 1996, dated 1998)
